Source: US6423518B1, “Design and production of mutant 2,5-diketo-D-gluconic acid reductase enzymes with altered cofactor dependency” (Rutgers, the State University, priority 2000, dated 2002)

Columns and labels:
[1] = target: T1, 2,5-diketo-D-gluconic acid reductase A (Corynebacterium sp., wild type SEQ ID NO:1) variant R235T (Corynebacterium sp., UniProt P06632, R235T); test: Kinetic determination with purified enzyme, NADH cofactor, initial rates (microtiter plate); type: biochemical
T1 construct: GroES fragment (N); made in house; host or cells: E. coli JM109
Method: (§1) The activities of the purified enzymes were assayed in 96-well microtiter plates on a plate reader.
(§2) Equation (1) is: [formula]
(§3) B=2,5-diketo-D-gluconic acid concentration;
(§4) Kb=Michaelis Constant for 2,5-diketo-D-gluconic acid;
(§5) Kia=Dissociation Constant for NADH;
(§6) Et=Total enzyme concentration.
(§7) However, the parameters could not be fit in this model with any accuracy, due to the large apparent value of KM for 2,5-diketo-D-gluconic acid, and the low concentration of 2,5-diketo-D-gluconic acid that was used. The 2,5-diketo-D-gluconic acid concentrations were not large enough to saturate the enzyme, so a further mathematical simplification was required. Preliminary fitting of the model indicated both kcat and Kb to be very large in comparison to Ka and Kia Therefore, the rate equation was simplified to the following equation (2): [formula]
(§8) This equation is only valid when B<<Kb.
(§9) This equation was then used to fit the kinetic data, with much better results.
(§10) Other comparisons can also be made between the different mutants using these parameters. […]
(§11) Cells containing plasmids for some of the mutant reductases were grown up on a 1 liter scale using a 10 ml inoculum from a saturated overnight culture. The cells were grown until absorbance of the culture at 600 nm was approximately 1.0. The cells were then induced by adding IPTG to a final concentration of 1 mM. The cells were harvested after growth at 37° C. for 4 hours. The cells were then pelleted by centrifugation and frozen for later use. At a later date, cells were thawed and lysed with the Bug Buster detergent (Novagen) containing Complete Protease Inhibitor Cocktail Tablets (Roche). The pH was lowered to 5.5 with 20 mM sodium acetate (NaOAc) and NaCl was added to a final concentration of 0.15 M. After 10 minutes with the detergent, the cell debris was removed by centrifugation, and the supernatant was loaded onto disposable chromatography columns containing a 10 ml bed volume of DEAE Cellulose (Sigma) for a batch weak ion exchange step. The resin was washed with 0.15 M NaCl, still in the presence of NaOAc, pH 5.5. The bound proteins were then eluted by two washes with 0.5 M NaCl. The eluted material was then diluted back to 0.15 M NaCl by the addition of more 20 mM NaOAc buffer. This was then loaded onto a 4.6 mmD/100mml PEEK column (PerSeptive Biosystems) containing 50 μm DEAE Ceramic HyperD F resin (BioSepra) using an FPLC system. The high performance resin was washed with 0.1 M NaCl and the bound proteins were eluted using a linear salt gradient up to 0.4 M NaCl. Active fractions were pooled and the pH was raised to 7.0 using 50 mM bis-Tris. The pooled fractions were then concentrated by ultrafiltration in a stirred cell unit using a polyethersulfone membrane with a 10,000 MW cut-off (Millipore). The concentrate was loaded onto a Superdex-75 gel filtration column (Pharmacia) using 50 mM bis-Tris pH 7.0 with an FPLC system. The active fractions were again pooled. A small sample from the pooled fractions was electrophoresed on a polyacrylamide gel in the presence of SDS in order to insure homogeneity of the final product.
(§12) NADPH and NADH were prepared fresh for each use in kinetic measurements. These reactions were performed in 96-well microtiter plates using a SpectraMax 190 plate reader (Molecular Devices). Varying amounts of cofactor and substrate were added to the wells and reaction was initiated by the addition of the mutant enzyme. The final volume of each reaction was 200 μl, the reactions were buffered with 50 mM bis-Tris pH 7.0, and the temperature was held at 25° C. […] Initial rate data was collected in each well, and a standard curve was generated each day in order to correlate the change in absorbance of the reaction to a change in concentration of cofactors. All measurements were performed in triplicate (at least) and the runs were averaged for use in kinetic modeling.

[2] = target: T2, 2,5-diketo-D-gluconic acid reductase A (Corynebacterium sp., wild type SEQ ID NO:1) variant R238E (Corynebacterium sp., UniProt P06632, R238E); test: as above; type: biochemical
T2 construct: GroES fragment (N); made in house; host or cells: E. coli JM109
Method: as §1, §2, §3, §4, §5, §6, §7, §8, §9, §10, §11, §12

[3] = target: T3, 2,5-diketo-D-gluconic acid reductase A (Corynebacterium sp., wild type SEQ ID NO:1) variant R238H (Corynebacterium sp., UniProt P06632, R238H); test: as above; type: biochemical
T3 construct: GroES fragment (N); made in house; host or cells: E. coli JM109
Method: as §1, §2, §3, §4, §5, §6, §7, §8, §9, §10, §11, §12

[4] = target: T4, 2,5-diketo-D-gluconic acid reductase A, wild type, Corynebacterium sp. (ATCC Strain No. 31090; Genbank Accession No. 4699594; SEQ ID NO:1) (Corynebacterium sp., UniProt P06632); test: as above; type: biochemical
T4 construct: GroES fragment (N); made in house; host or cells: E. coli JM109
Method: as §1, §2, §3, §4, §5, §6, §7, §8, §9, §10, §11, §12

[5] = test system: hemolymph 3-dehydroecdysone 3β-reductase from Spodoptera littoralis; settings: read-out: KM for NADH; Chen et al. Eur. J. Biochem. 1996; cited from earlier work
[6] = kcat/Ka apparent with NADH, relative to wild type
[7] = versus wild type, NADH as varied substrate

T3 sequence (P06632 whole entry R238H, the tested form may be a part): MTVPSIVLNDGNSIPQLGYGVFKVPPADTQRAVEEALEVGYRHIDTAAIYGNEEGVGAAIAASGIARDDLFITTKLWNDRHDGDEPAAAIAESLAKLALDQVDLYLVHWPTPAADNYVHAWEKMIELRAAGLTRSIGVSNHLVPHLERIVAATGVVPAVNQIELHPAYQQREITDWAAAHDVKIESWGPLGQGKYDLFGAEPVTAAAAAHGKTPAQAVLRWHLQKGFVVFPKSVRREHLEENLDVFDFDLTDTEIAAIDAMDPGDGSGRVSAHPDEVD
T4 sequence (P06632 whole entry, the tested form may be a part): as the sequence (P06632 whole entry R238H, the tested form may be a part) above, with H238R counted along it
T1 sequence (P06632 whole entry R235T, the tested form may be a part): as the sequence (P06632 whole entry R238H, the tested form may be a part) above, with R235T, H238R counted along it
T2 sequence (P06632 whole entry R238E, the tested form may be a part): as the sequence (P06632 whole entry R238H, the tested form may be a part) above, with H238E counted along it

## NC(=O)C1=CN([C@@H]2O[C@H](COP(=O)(O)OP(=O)(O)OC[C@H]3O[C@@H](n4cnc5c(N)ncnc54)[C@H](O)[C@@H]3O)[C@@H](O)[C@H]2O)C=CC1 [NADH]
[1]; [6]
  (kcat/KbKia)/(kcat/KbKia)wt: 0.54
[1]; relative to wild type, NADH
  Kia/(Kia)wt: 3.40
[1]; [7]
  increase of apparent Ka: more than 3 fold
  increase of apparent kcat: 2 fold
[2]
  Kd: 8450 ± 1740 µM
[2]; [6]
  (kcat/KbKia)/(kcat/KbKia)wt: 0.63
[2]; relative to wild type, NADH
  Kia/(Kia)wt: 3.25
[2]; [7]
  change of apparent kcat: doubled
  increase of apparent Ka: more than 3 fold
[3]
  Kd: 2070 ± 130 µM
[3]; [6]
  (kcat/KbKia)/(kcat/KbKia)wt: 6.71
[3]; relative to wild type, NADH
  Kia/(Kia)wt: 0.80
[3]; [7]
  improvement in apparent kcat: more than 5 fold
[4]; [6]
  (kcat/KbKia)/(kcat/KbKia)wt: 1.00
[4]; read-out: Kia
  Kd: 2600 ± 160 µM
[4]; relative to wild type, NADH
  Kia/(Kia)wt: 1.00
[5]
  Km: 22.8 µM
